Results reported in patent US11065231B2, “Compounds and methods for the targeted degradation of interleukin-1 receptor- associated kinase 4 polypeptides” (Arvinas Operations, Inc., priority 2017, dated 2021).

Experiments:
IRAK4 [1] = biological target: T1, IRAK4 (Homo sapiens (Human), UniProt Q9NWZ3); test: Western blot assay for assessing degradation of IRAK4 in MCF7 cells; format: cell-based; conditions: Table 5, IRAK4 degradation, 24 hour incubation; for DC50: read-out: IRAK4 DC50; for Dmax: read-out: IRAK4 Dmax (%)
T1 sequence (Q9NWZ3 whole entry): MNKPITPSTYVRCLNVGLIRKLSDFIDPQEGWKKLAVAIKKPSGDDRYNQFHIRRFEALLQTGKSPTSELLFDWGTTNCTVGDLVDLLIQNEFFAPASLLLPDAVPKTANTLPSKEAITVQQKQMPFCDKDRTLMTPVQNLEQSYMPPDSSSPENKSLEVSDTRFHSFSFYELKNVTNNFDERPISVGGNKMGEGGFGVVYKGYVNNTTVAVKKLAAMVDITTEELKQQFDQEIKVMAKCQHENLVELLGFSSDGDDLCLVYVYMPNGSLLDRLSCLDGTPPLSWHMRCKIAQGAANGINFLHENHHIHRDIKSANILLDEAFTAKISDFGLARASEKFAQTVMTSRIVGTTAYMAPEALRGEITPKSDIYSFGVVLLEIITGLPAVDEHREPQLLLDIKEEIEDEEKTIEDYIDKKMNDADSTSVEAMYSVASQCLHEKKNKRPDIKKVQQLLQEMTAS
Method: Western Blot Assay for Assessing Degradation of IRAK4.
MCF7 cells, purchased from ATCC (Manassas, Va.), were used at a passage range of 2-19. Cells were seeded at 50% confluency in 96-well plates at 180 μl/well in cell media (Dulbecco's Modified Eagle medium/nutrient F-12 Ham-10% Fetal Bovine Serum) and incubated overnight. The next morning, compounds were serially diluted and added (20 μl into 180 μl media) at a final DMSO concentration of 0.1%. Cells were rinsed with cell media and replaced with compounds in media, followed by incubation overnight. After a 24 hour incubation with compound, cell were harvested (90-100% confluent at harvest). Cells were then washed once with 100 μl of Dulbecco's hosphate-buffered saline and then lysed with 40 μl of lysis buffer (1×RIPA+HALT protease inhibitor+HALT phosphatase inhibitor) on ice for 10 minutes. Lysates were then cleaned by filtration in 1.2 µm filter plates followed by western blotting. For each sample, 30 μl of lysate were added to 10 μl of 4×LDS sample buffer, then denatured at 95° C. for 5 minutes in the thermal cycler and placed on ice. Fifteen μL of each sample were then loaded on 4-15% Tris/Glycine gels and run for 25 minutes at 250 (constant) volts in 1× Tris/Glycine buffer. Protein was transferred from gels to nitrocellulose using a BioRad Turbo dry-transfer unit with the Turbo/midi default program. All blots were rinsed with ddH2O and blocked for 1 hour at room temperature in 5% bovine serum albumin (BSA) in tris-buffered saline-Tween 20 (TBS-T) (0.1%) on rocker. Blots were exposed to primary antibody in 5% BSA in TBS-T (0.1%) overnight at 4° C. on rocker. Primary antibodies, diluted 1:1000 in […], were as follows: anti-IRAK4 (cat. #: ab119942, Abcam, Cambridge, Mass.), anti-IRAK1 (cat. #: CST 4504S, Cell Signaling Technology, Danvers, Mass.), and anti-Beta-actin (Cat. #: ab8227, Abcam, Cambridge, Mass.). Blots were then washed with TBS-T (0.1%) three times for 5 minutes on a rocker at room temperature. Secondary antibody (1:18,000 anti-rabbit-HRP and/or anti-mouse-HRP in 5% BSA in TBST (0.1%) was then added, and blots incubated at room temperature rocker for 1 hour. Blots were washed 3 times in TBS-T (0.1%) for 5 minutes at room temperature on the rocker. Signal was developed with Femto Max substrate for 5 minutes and blots read on a ChemiDoc. Percent degradation was assessed by comparing IRAK4 signal in compound vs. DMSO treated lysates.

IRAK4 [2] = biological target: T1, IRAK4; test: Biochemical Z'-Lyte FRET assay for IRAK4 kinase inhibition; conditions: 2 nM enzyme, 1 mM ATP, 2 μM substrate
Method: Biochemical Assay for IRAK4 Kinase Inhibition.
A Z′-Lyte assay based on a fluorescence resonance energy transfer (FRET) readout was developed for measuring IRAK4-dependent phosphorylation of a FRET-peptide substrate as described by Thermo Fisher Scientific (Grand Island, N.Y.). At a starting concentration of 1.5 mM, the identified compounds were serially diluted with 100% dimethyl sulfoxide (DMSO) in 3-fold increments, into Greiner bio-one 96-well plates (cat. #: 650201, Greiner bio-one, Monroe, N.C.). Compounds were then transferred to intermediate Greiner bio-one 96-well plates and diluted 10-fold with Kinase assay buffer (25 mM HEPES, pH 7.5, 10 mM MgCl2, 10 mM MnCl2, 1 mM EGTA, and 0.01% Brij-35, 2 mM DTT). Three μL of the serially diluted compounds were then transferred in duplicate to low-volume 384-well black proxiplates (cat. #: 6008269; Perkin Elmer, Akron, Ohio), to give duplicate twelve-point concentration curves. Six μl of a 2.5× solution of IRAK4 enzyme (cat #: 40064, BPS Bioscience, San Diego, Calif.) in kinase buffer was added to each well, followed by a 10 minutes pre-incubation step. Reactions were initiated by adding 6 μl of a 2.5× substrate mix of ATP and Z′-Lyte Ser/Thr 7 peptide (cat. #: PV3180, Thermo Fisher Scientific, Grand Island, N.Y.) and proceeded at room temperature for 1 hour. The final concentration of key reagents in the 15 uL kinase reactions were 2 μM substrate, 2 nM enzyme, and 1 mM ATP, with dose responses starting at 30 μM compound. At the end of the kinase reactions, 5 μl of developing solution (as instructed in for cat. #: PV3180, Thermo Fisher Scientific, Grand Island, N.Y.) was added to each well and incubated at room temperature for 1 hour. All wells were read on an Envision 2105 Multilabel fluorescence plate reader (Perkin Elmer, Waltham, Mass.) at 400 nm excitation and 460 nm/530 nm emission. Plus and minus 100% inhibition controls were used to calculate percent inhibition and IC50 curves were generated using Graphpad Prism (La Jolla, Calif.).

| Compound | DC50 (IRAK4 [1]) | IC50 (IRAK4 [2]) | Dmax (IRAK4 [1]) |
| --- | --- | --- | --- |
| Cc1ncsc1-c1ccc(CNC(=O)[C@@H]2C[C@@H](O)CN2C(=O)[C@@H](NC(=O)COCCOCCN2CCN(Cc3ccc4c(c3)nc(NC(=O)c3cccc(C(F)(F)F)c3)n4[C@H]3CC[C@@H](CO)CC3)CC2)C(C)(C)C)cc1 (racemic) [compound 12, (2S,4R)-4-hydroxy-1-((S)-2-(2-(2-(2-(4-((1-((1SR,4SR)-4-(hydroxymethyl)cyclohexyl)-2-(3-(trifluoromethyl)benzamido)-1H-benzo[d]imidazol-5-yl)methyl)piperazin-1-yl)ethoxy)ethoxy)acetamido)-3,3-dimethylbutanoyl)-N-(4-(4-methylthiazol-5-yl)benzyl)pyrrolidine-2-carboxamide] | ≥ 1000 nM | 30 to 100 nM | – |
| N#Cc1ccc2ncnc(N[C@H]3CC[C@H](N4CCN(CCOCCOc5ccc6c(c5)C(=O)N(C5CCC(=O)NC5=O)C6=O)CC4)CC3)c2c1 (some centres unmarked) [compound 30] | ≥ 1000 nM | 300 to 1000 nM | – |
| N#Cc1ccc2ncnc(N[C@H]3CC[C@H](N4CCN(CCOc5ccc6c(c5)C(=O)N(C5CCC(=O)NC5=O)C6=O)CC4)CC3)c2c1 (some centres unmarked) [compound 29] | ≥ 1000 nM | 300 to 1000 nM | – |
| N#Cc1ccc2ncnc(N[C@H]3CC[C@@H](N4CCN(S(=O)(=O)CCOCCOCCOCCOCCOc5ccc6c(c5)C(=O)N(C5CCC(=O)NC5=O)C6=O)CC4)CC3)c2c1 (some centres unmarked) [compound 41] | ≥ 1000 nM | ≥ 1000 nM | – |
| N#Cc1ccc2ncnc(N[C@H]3CC[C@H](N4CCN(CCOCCOCCOCCOCCOc5ccc6c(c5)C(=O)N(C5CCC(=O)NC5=O)C6=O)CC4)CC3)c2c1 (some centres unmarked) [compound 33] | ≥ 1000 nM | ≥ 1000 nM | – |
| N-(1-((1s,4s)-4-(13-((2-(2,6- dioxopiperidin-3-yl)-1,3- dioxoisoindolin-5-yl)oxy)- 2,5,8,11- tetraoxatetradecyl)cyclohexyl)- 5-(piperidin-1-ylmethyl)-1H- benzo[d]imidazol-2-yl)-3- (trifluoromethyl)benzamide [compound 42] | ≥ 1000 nM | 300 to 1000 nM | – |
| CN(CCOc1ccc2c(c1)C(=O)N(C1CCC(=O)NC1=O)C2=O)c1cccc(-n2c(NC(=O)c3cccc(C(F)(F)F)c3)nc3cc(F)ccc32)c1 (centres unmarked) [compound 50, N-(1-(3-((2-((2-(2,6-dioxopiperidin-3-yl)-1,3-dioxoisoindolin-5-yl)oxy)ethyl)(methyl)amino)phenyl)-5-fluoro-1H-benzo[d]imidazol-2-yl)-3-(trifluoromethyl)benzamide] | ≥ 1000 nM | ≥ 1000 nM | – |
| Cc1ccc(-n2nc(N3CCN(CCOCCOCCOCC(=O)N[C@H](C(=O)N4C[C@H](O)C[C@H]4C(=O)NCc4ccc(-c5scnc5C)cc4)C(C)(C)C)CC3)cc2NC(=O)c2cnn3cccnc23)nc1 [compound 27, N-(3-(4-((S)-13-((2S,4R)-4-hydroxy-2-((4-(4-methylthiazol-5-yl)benzyl)carbamoyl)pyrrolidine-1-carbonyl)-14,14-dimethyl-11-oxo-3,6,9-trioxa-12-azapentadecyl)piperazin-1-yl)-1-(5-methylpyridin-2-yl)-1H-pyrazol-5-yl)pyrazolo[1,5-a]pyrimidine-3-carboxamide] | ≥ 1000 nM | 300 to 1000 nM | – |
| N#Cc1ccc2ncnc(N[C@H]3CC[C@H](N4CCN(S(=O)(=O)CCOCCOc5ccc6c(c5)C(=O)N(C5CCC(=O)NC5=O)C6=O)CC4)CC3)c2c1 (some centres unmarked) [compound 34] | ≥ 1000 nM | ≥ 1000 nM | – |
| COc1cc2nn(C3CCN(CCOCCOCCOc4ccc5c(c4)CN(C4CCC(=O)NC4=O)C5=O)CC3)cc2cc1NC(=O)c1cccc(C(F)(F)F)n1 (centres unmarked) [compound 61, N-(2-(1-(2-(2-(2-((2-(2,6-dioxopiperidin-3-yl)-1-oxoisoindolin-5-yl)oxy)ethoxy)ethoxy)ethyl)piperadin-4-yl)-6-methoxy-2H-indazol-5-yl)-6-(trifluoromethyl)picolinamide] | ≥ 1000 nM | < 30 nM | – |
| O=C1CCC(N2C(=O)c3ccc(OCCN4CCN(Cc5ccc6c(c5)nc(NC(=O)c5cccc(C(F)(F)F)c5)n6[C@H]5CC[C@@H](CO)CC5)CC4)cc3C2=O)C(=O)N1 (some centres unmarked) [compound 1, N-(5-((4-(2-((2-(2,6-dioxopiperidin-3-yl)-1,3-dioxoisoindolin-5-yl)oxy)ethyl)piperazin-1-yl)methyl)-1-((1s,4s)-4-(hydroxymethyl)cyclohexyl)-1H-benzo[d]imidazol-2-yl)-3-(trifluoromethyl)benzamide] | 100 to 300 nM | < 30 nM | – |
| N#Cc1ccc2ncnc(N[C@H]3CC[C@H](N4CCN(CCOCCOCCOc5ccc6c(c5)C(=O)N(C5CCC(=O)NC5=O)C6=O)CC4)CC3)c2c1 (some centres unmarked) [compound 31] | ≥ 1000 nM | ≥ 1000 nM | – |
| N#Cc1ccc2ncnc(N[C@H]3CC[C@@H](N4CCN(S(=O)(=O)CCOCCOc5ccc6c(c5)C(=O)N(C5CCC(=O)NC5=O)C6=O)CC4)CC3)c2c1 (some centres unmarked) [compound 35] | ≥ 1000 nM | ≥ 1000 nM | – |
| COc1cc2nn(C3CCN(CC4CCN(CCOc5ccc6c(c5)C(=O)N(C5CCC(=O)NC5=O)C6=O)CC4)CC3)cc2cc1NC(=O)c1cccc(C(F)(F)F)n1 (centres unmarked) [compound 63, N-(2-(1-((1-(2-((2-(2,6-dioxopiperidin-3-yl)-1,3-dioxoisoindolin-5-yl)oxy)ethyl)piperadin-4-yl)methyl)piperidin-4-yl)-6-methoxy-2H-indazol-5-yl)-6-(trifluoromethyl)picolinamide] | 30 to 100 nM | < 30 nM | > 70% |
| O=C1CCC(N2C(=O)c3ccc(OCCN4CCC(CN5CCN(Cc6ccc7c(c6)nc(NC(=O)c6cccc(C(F)(F)F)c6)n7[C@H]6CC[C@@H](CO)CC6)CC5)CC4)cc3C2=O)C(=O)N1 (some centres unmarked) [compound 10] | 30 to 100 nM | < 30 nM | – |
| O=C1CCC(N2C(=O)c3ccc(N4CCC(CN5CCN(Cc6ccc7c(c6)nc(NC(=O)c6cccc(C(F)(F)F)c6)n7[C@H]6CC[C@@H](CO)CC6)CC5)CC4)cc3C2=O)C(=O)N1 (some centres unmarked) [compound 9, N-(5-((4-((1-(2-(2,6-dioxopiperidin-3-yl)-1,3-dioxoisoindolin-5-yl)piperazin-4-yl)methyl)piperzin-1-yl)methyl)-1-((1s,4s)-4-(hydroxymethyl)cyclohexyl)-1H-benzo[d]imidazol-2-yl)-3-(trifluoromethyl)benzamide] | < 30 nM | < 30 nM | > 70% |
| COc1cc2nn(C3CCN(CCOCCOCCNc4cccc5c4C(=O)N(C4CCC(=O)NC4=O)C5=O)CC3)cc2cc1NC(=O)c1cccc(C(F)(F)F)n1 (centres unmarked) [compound 62, N-(2-(1-(2-(2-(2-((2-(2,6-dioxopiperidin-3-yl)-1,3-dioxoisoindolin-4-yl)amino)ethoxy)ethoxy)ethyl)piperadin-4-yl)-6-methoxy-2H-indazol-5-yl)-6-(trifluoromethyl)picolinamide] | – | < 30 nM | – |
